The text below walks through data of patent US20250249102A1, “CMV-HIV SPECIFIC CHIMERIC ANTIGEN RECEPTOR T CELLS” (priority 2022, published 2025).

pEC50: −log10 of the molar value. Read-outs that look alike come from different tables or passages of the source.

The subject of assay [1] is HIV-1 BaL or HIV-1 NL4-3. The following applies: for HIV replication: CD8+-depleted PBMCs infected with HIV-1 BaL or HIV-1 NL4-3.
Assay [2] deals with HIV-1 BaL or HIV-1 NL4-3. Nature of the assay: microbe, parasite or virus in culture. The following applies: Human immunodeficiency virus 1, PBMC.

On to enfuvirtide, for which, in the assay on HIV-1 BaL or HIV-1 NL4-3 [1], the pEC50 was 7.55 and the HIV replication entry is “prevent HIV replication”.
Consider `CC(C)CN(C[C@@H](O)[C@H](Cc1ccccc1)NC(=O)O[C@H]1CO[C@H]2OCC[C@H]21)S(=O)(=O)c1ccc(N)cc1` [darunavir], for which, in the assay on HIV-1 BaL or HIV-1 NL4-3 [1], the HIV replication result is “prevent HIV replication”. In the assay with HIV-1 BaL or HIV-1 NL4-3 [2], the pEC50 is 8.37.
